Assays:
Test in all cases: MTT cell proliferation assay, PU-H71 titration
Format in all cases: cell-based
ARK = conditions: Homo sapiens, ARK myeloma cell line, 72 hours, without thrombin
Experimental: (§1) Cell growth inhibition of an anticancer agent (PU-H71) (6) was tested in a panel of myeloma cell lines. HMCLs were treated with a titration of the anti-cancer reagent PU-H71 (0 to 4,000 nM) in vitro for 72 hours. The MTT assay was utilized to detect proliferation of each cell line. The half maximal inhibitory concentration (IC50) of PU-H71 was calculated using OriginPro 7.5 statistic software.

H929 = conditions: Homo sapiens, NCI-H929, H929 myeloma cell line, 72 hours, without thrombin
Experimental: as §1

INA6 = conditions: Homo sapiens, INA-6, INA6 myeloma cell line, 72 hours, without thrombin
Experimental: as §1

JJN3 = conditions: Homo sapiens, JJN-3, JJN3 myeloma cell line, 72 hours, without thrombin
Experimental: as §1

KMS28BM = conditions: Homo sapiens, KMS-28BM, KMS28BM myeloma cell line, 72 hours, without thrombin
Experimental: as §1

KMS28PE = conditions: Homo sapiens, KMS-28PE, KMS28PE myeloma cell line, 72 hours, without thrombin
Experimental: as §1

L363 = conditions: Homo sapiens, L-363, L363 myeloma cell line, 72 hours, without thrombin
Experimental: as §1

MM144 = conditions: Homo sapiens, MM144 myeloma cell line, 72 hours, without thrombin
Experimental: as §1

OCI-MY5 = conditions: Homo sapiens, OCI-MY5 myeloma cell line, 72 hours, without thrombin
Experimental: as §1

OPM2 = conditions: Homo sapiens, OPM-2, OPM2 myeloma cell line, 72 hours, without thrombin
Experimental: as §1

RPMI8226 = conditions: Homo sapiens, RPMI-8226, RPMI8226 myeloma cell line, 72 hours, without thrombin
Experimental: as §1

U266 = conditions: Homo sapiens, U-266, U266 myeloma cell line, 72 hours, without thrombin
Experimental: as §1

XG1 = conditions: Homo sapiens, XG1 myeloma cell line, 72 hours, without thrombin
Experimental: as §1

IC50 (H929): 210 nM
IC50 (MM144): 306 nM
IC50 (OCI-MY5): 164 nM
IC50 (RPMI8226): 485 nM
IC50 (U266): 198 nM
SMILES: CC(C)NCCCn1c(Sc2cc3c(cc2I)OCO3)nc2c(N)ncnc21 [PU-H71]
IC50 (ARK): 339 nM
IC50 (INA6): 141 nM
IC50 (JJN3): 800 nM
IC50 (KMS28BM): 164 nM
IC50 (KMS28PE): 344 nM
IC50 (L363): 232 nM
IC50 (OPM2): 415 nM
IC50 (XG1): 238 nM

From patent US20130209446A1, “Copy Number Variant-Dependent Genes As Diagnostic Tools, Predictive Biomarkers And Therapeutic Targets” (Board of Trustees of the University of Arkansas, priority 2010, published 2013)
